#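 Protocol summary: plate cells (96-well), add compound at 5 concentrations, incubate 48 h, interpolate endpoints linearly. The concentration for 50% growth inhibition is given as GI50. TGI: total growth inhibition.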
# Tests used:
# Test in all cases: DTP human tumour cell line panel, 48 h
# OVCAR-8 ovarian = tested on: OVCAR-8 ovarian
# HCT-116 colon = tested on: HCT-116 colon
# SN12C renal = tested on: SN12C renal
# NCI-H23 lung = tested on: NCI-H23 lung
# KM12 colon = tested on: KM12 colon
# SR leukemia = tested on: SR leukemia
# DMS 114 small cell lung = tested on: DMS 114 small cell lung
# KM20L2 colon = tested on: KM20L2 colon
# M19-MEL melanoma = tested on: M19-MEL melanoma
# DMS 273 small cell lung = tested on: DMS 273 small cell lung
# LXFL 529 NSCLC = tested on: LXFL 529 NSCLC
# HOP-18 NSCLC = tested on: HOP-18 NSCLC
# DLD-1 colon = tested on: DLD-1 colon
# SNB-78 CNS = tested on: SNB-78 CNS
SMILES,TGI (OVCAR-8 ovarian) [µM],TGI (HCT-116 colon) [µM],TGI (SN12C renal) [µM],TGI (NCI-H23 lung) [µM],TGI (KM12 colon) [µM],TGI (SR leukemia) [µM],TGI (DMS 114 small cell lung) [µM],TGI (KM20L2 colon) [µM],TGI (M19-MEL melanoma) [µM],TGI (DMS 273 small cell lung) [µM],TGI (LXFL 529 NSCLC) [µM],TGI (HOP-18 NSCLC) [µM],TGI (DLD-1 colon) [µM],TGI (SNB-78 CNS) [µM],GI50 (OVCAR-8 ovarian) [µM],GI50 (HCT-116 colon) [µM]
COc1cc2c3c([nH]c2c(OC)c1OC)CCN(Cc1ccccc1)C3,> 100,> 100,> 100,> 100,> 100,,,,,,,,,,,
CCCCNc1nc(NC2OCC(OC(C)=O)C(OC(C)=O)C2OC(C)=O)c(N=O)c(=O)n1C (centres undefined),> 10,> 10,> 10,> 10,> 10,> 10,,,,,,,,,,
COc1cc(CNc2nc3ccccc3nc2C(=O)O)cc(OC)c1OC,> 100,> 100,> 100,> 100,> 100,> 100,,,,,,,,,,
O=c1[nH]nc(-c2ccccc2)n1O,> 100,> 100,> 100,> 100,> 100,> 100,,,,,,,,,,
COc1cccc(C(=O)C#Cc2cnc(OC)nc2OC)c1,3.88,7.67,2,5.5,18.7,,,,,,,,,,,
CN(C)CCc1c2c(nc3ccccc13)C(=O)c1cccnc1C2=O,1.66,0.344,1.92,0.49,1.38,0.144,,,,,,,,,,
OC(c1cccnc1Cl)c1nc2ccccc2c2ccnc(Cl)c12 (centres undefined),> 100,> 100,45.8,> 100,> 100,17.7,,,,,,,,,,
CCN(CCN(CC)C(=O)Nc1ccccc1)C(=O)Nc1ccccc1,> 100,> 100,> 100,> 100,,> 100,,,,,,,,,,
O=C1CCCC/C1=C\c1ccc(Cl)c(Cl)c1,78,31.9,31,71.3,,,41.1,40.9,40.3,38.5,31.2,51.7,61.6,52.7,,
Cn1c(=O)n2n(c1=O)C(C)(C13CC4CC(CC(C4)C1)C3)C13CC4CC(CC1C4)CC23 (centres undefined),> 100,,> 100,> 100,> 100,> 100,,,,,,,,,,
CCC1C(c2ccccc2O)c2cc3c(cc2OC1N1CCOCC1)OCO3 (centres undefined),46.2,26.5,29.4,34.5,27.7,30.8,,,,,,,,,,
CN1CCN(c2ccc3c(c2)NCC(=O)N3)CC1,> 100,> 100,,> 100,> 100,> 100,,,,,,,,,,
CC(C)/C(Cl)=N/OC(=O)Nc1ccc(Cl)c(Cl)c1,32.9,4.65,3.42,29.5,32.6,> 100,,,,,,,,,,
c1ccc(N=C2c3ccsc3C(=Nc3ccccc3)c3ccsc32)cc1,5.68,3.89,3.02,3.03,6.35,,,,,,,,,,,
COC(=O)C(Cc1c[nH]c2ccccc12)N=C1Nc2ccncc2S(=O)(=O)N1c1cccc(OC(C)C)c1 (centres undefined),> 100,> 100,> 100,85.8,> 100,79.7,,,,,,,,,,
CC(C)(C)OC(=O)NCCCCC(N)NC(=O)c1ccccc1 (centres undefined),> 100,> 100,> 100,> 100,> 100,,,,,,,,,,,
CC1CC(C#N)=C2NCCN2C1=O (centres undefined),> 100,,> 100,> 100,> 100,> 100,,,,,,,,,,
COc1cc(O)c2c(=O)c(OC)c(-c3ccc(OC)c(OC)c3)oc2c1,> 100,> 100,,,,,,,,,,,,,> 100,68.7
COc1cc(Nc2nc3cc(C(F)(F)F)ccc3n3cccc23)cc(OC)c1OC,> 100,> 100,> 100,> 100,,,,,,,,,,,,
COC(=O)C1CCC(=O)N1C(c1ccc2c(c1)OCO2)c1cc(OC)c(OC)c(OC)c1 (centres undefined),> 100,> 100,> 100,> 100,> 100,> 100,,,,,,,,,,
CC1(C)CC(=O)c2c(nc3c4c([nH]c(-c5ccc(Br)cc5)c24)CC(C)(C)C3)C1,> 100,> 100,> 100,> 100,> 100,59.1,,,,,,,,,,
O=C(c1ccco1)N(C(=O)N1CCN(c2ccccc2)CC1)S(=O)(=O)c1ccccc1,> 100,44,61.9,53.2,> 100,51.4,,,,,,,,,,
CN(C)CCNC(=O)c1cccc2c(NC(CCC(N)=O)C(=O)O)c3ccccc3nc12 (centres undefined),> 100,> 100,81,18.4,59.1,> 100,,,,,,,,,,
COc1ccc2c3c1O[C@H](c1ccc(O)cc1)[C@H]3[N+](C)(C)CC2,> 100,> 100,> 100,> 100,> 100,> 100,,,,,,,,,,
C1CSCCSCCCSCCSCCCSCCSCCCSCCSC1,> 100,> 100,> 100,> 100,> 100,> 100,,,,,,,,,,
C=CCC1(C)CCCN(Cc2ccccc2)C1=O (centres undefined),> 10,> 10,> 10,> 10,> 10,> 10,,,,,,,,,,
COc1ccc(C(=O)/C=C/c2ccc(OCC#N)cc2)cc1,> 100,24.6,39.2,49.6,32.6,49.5,,,,,,,,,,
O=C1Cc2c([nH]c3ccc(C(=O)O)cc23)-c2ccccc2N1,> 100,> 100,> 100,> 100,> 100,> 100,,,,,,,,,,
O=C1c2c(Br)sc(Br)c2[C@@H](NC(=O)C(F)(F)F)C1Br (some centres undefined),7.73,2.76,8.33,7.14,17.7,5.3,,,,,,,,,,
Cc1cnc2c(c1C)C(=O)c1ccccc1C2=O,> 100,> 100,> 100,> 100,> 100,> 100,,,,,,,,,,

# Source: PubChem BioAssay (NCI)
